This note sets out measurements from patent publication US7402559B2, “Composition and method of treatment for urogenital conditions” (MSH Pharma, Incorporated, priority 1999, dated 2008).

Bridge positions count the residues as written; N and C are the ends. Ends that are not written are not given here. I, II: the chains in the order shown.

Test [1] concerns C. albicans. As to the kind of experiment: C. albicans colony formation (CFU viability). In kind it is cell-based, Candida albicans. Conditions: FIG. 3; 10^−12 to 10^−4 M; p<0.01 vs. control. As to the method:
Clinical isolates of C. albicans were obtained from the collection of the Department of Microbiology, Ospedale Maggiore di Milano. Cultures of C. albicans were maintained on Sabouraud's agar slants and periodically transferred to Sabouraud's agar plates and incubated for 48 hours at 28° C. To prepare stationary growth-phase yeast, a colony was taken from the agar plate, transferred into 30 ml of Sabouraud-dextrose broth, and incubated for 72 hours at 32° C. Cells were centrifuged at 1000× g for ten minutes, and the pellet was washed twice with distilled water. Cells were counted and suspended in Hank's balanced salt solution (“HBSS”) to the desired concentration.
Cells were then washed in cold distilled water and diluted with HBSS to a concentration of 100 organisms/ml. One-milliliter aliquots were then dispensed on blood agar plates and incubated for 48 hours at 37° C. The organism's viability was estimated from the number of colonies formed.
[…] The effects of forskolin and ddAdo on the ability of C. albicans to form colonies were determined according to the procedures described in Example II.

The test system of test [2] is C. glabrata. Briefly: Candida CFU, CKPV dimer versus KPV: C. glabrata. The test is classed as cell-based. The conditions noted are these: FIG. 19; same molarity (10^−4 M). The protocol: (§1) C. albicans, C. glabrata. and C. krusei (clinical isolates) were obtained from the collection of the laboratory of Microbiology, Ospedale Maggiore di Milano. Six different isolates for each yeast strain were used. Candida Sp. cells were maintained on Sabouraud's agar slants and periodically transferred to Sabouraud's agar plates and incubated for 48 h at 28° C. To prepare stationary growth phase yeast, a colony was taken from the agar plates and transferred into 5 ml Sabouraud-dextrose broth and incubated for 48 h at 32° C. Cells were centrifuged at 1,000× g for 10 minutes and the pellet was washed twice with distilled water. Cells were counted and suspended in distilled water to obtain 10^7 yeast cells/ml. Viability, determined by the exclusion of 0.01% methylene blue, remained >98%.
(§2) Control tubes received 100 μl of distilled water. All the tests were run in triplicate. After 2 h incubation at 37° C., yeast suspension from each vial was diluted with distilled water to obtain approximately 100 organisms/ml. One milliliter aliquots from each tube were dispensed on blood agar plates and incubated for 48 h at 37° C. to count CFUs. Organism viability was estimated from the number of CFUs in each plate. Only experiments in which CFUs in control plates were between 80 and 120 with a variability in counts less than 10% were used to evaluate effects of the peptides. […]

Test [3] relates to C. albicans. As to the kind of experiment: Candida CFU, CKPV dimer versus KPV: C. albicans. The test is classed as cell-based. The conditions noted are these: FIG. 17; same molarity (10^−4 M). The protocol: as §1, §2
In test [4] the test system is C. krusei. As to the kind of experiment: Candida CFU, CKPV dimer versus KPV: C. krusei. The test is classed as cell-based. The conditions noted are these: FIG. 18; same molarity (10^−4 M). As to the method:
as §1, §2

The subject of test [5] is S. aureus (ATCC 29213). Briefly: S. aureus colony formation (viability). Conditions: FIG. 1; significant at peptide concentrations of 10^−12 to 10^−4 M; 2 h at 37° C. In kind it is cell-based, Staphylococcus aureus. The protocol: Cultures of S. aureus (ATCC 29213) were obtained from the collection of the Department of Microbiology, Ospedale Maggiore di Milano. […] Cells were then washed in cold distilled water and diluted with HBSS to a concentration of 100 organisms/ml. One-milliliter aliquots were dispensed on blood agar plates and incubated for 24 hours at 37° C. Viability of the microorganisms was estimated from the colonies formed. In another set of experiments, 500 units of urokinase, a S. aureus growth enhancer, were also incubated with the bacteria (10^5/100 ml ) for four hours at 37° C. in a shaking water bath together with the peptides.

Regarding “VPKC-s-s-CKPV (disulfide I:1-II:1; not fully specified (N-terminus, C-terminus)) [CKPV dimer]”, the “ability of C albicans to form colonies” value in test [1] is “greatly reduced”. Besides, in test [2], the “effectiveness relative to KPV monomer, C. glabrata” value is “more than twice as effective”. Further, in test [3], the “effectiveness relative to KPV monomer, C. albicans” value is “more than twice as effective”. Besides, the “effectiveness relative to KPV monomer, C. krusei” value in test [4] is “more than twice as effective”. In test [5], the “S. aureus colony formation” value is recorded as “inhibited”.
